According to ChEMBL document CHEMBL1159229, “In vitro anticomplementary activity of constituents from Morinda morindoides” (J Nat Prod, 1995):

Assays:
Cavia porcellus [1] = species: Cavia porcellus; test: Inhibition of guinea pig classical complement system assessed as hemolysis of sensitized sheep erythrocytes at 1000 uM
Homo sapiens [2] = species: Homo sapiens; test: Inhibition of human plasma alternative complement system assessed as hemolysis of non-sensitized rabbit erythrocytes at 1000 uM; type: cell-free
Cavia porcellus [3] = species: Cavia porcellus; test: Inhibition of guinea pig classical complement system assessed as hemolysis of sensitized sheep erythrocytes
Homo sapiens [4] = species: Homo sapiens; test: Activation of human plasma alternative complement system assessed as hemolysis of non-sensitized rabbit erythrocytes at 1000 uM; type: cell-free
Cavia porcellus [5] = species: Cavia porcellus; test: Activation of guinea pig classical complement system assessed as hemolysis of sensitized sheep erythrocytes at 1000 uM

Row | Structure (SMILES) | inhibition (Cavia porcellus [1]) [%] | inhibition (Homo sapiens [2]) [%] | Activity (Cavia porcellus [3]) | Activity (Homo sapiens [4]) [%] | Activity (Cavia porcellus [5]) [%]
1 | C[C@@H]1O[C@@H](Oc2c(-c3ccc(O)c(O)c3)oc3cc(O)cc(O)c3c2=O)[C@H](O)[C@H](O)[C@H]1O | 56.2 | 13.5 | Dose-dependent effect |  | 
2 | C[C@@H]1O[C@@H](Oc2c(-c3ccc(O)cc3)oc3cc(O)cc(O)c3c2=O)[C@H](O)[C@H](O)[C@H]1O | 5.6 | 6.2 |  |  | 
3 | C[C@@H]1O[C@@H](OC[C@H]2O[C@@H](Oc3c(-c4ccc(O)cc4)oc4cc(O)cc(O)c4c3=O)[C@H](O)[C@@H](O)[C@@H]2O)[C@H](O)[C@H](O)[C@H]1O | 19.2 |  |  | 18.4 | 
4 | O=c1cc(-c2ccc(O)c(O)c2)oc2cc(O[C@@H]3O[C@H](CO)[C@@H](O)[C@H](O)[C@H]3O)cc(O)c12 | 25.2 | 2 |  |  | 
5 | O=c1cc(-c2ccc(O)cc2)oc2cc(O[C@@H]3O[C@H](CO)[C@@H](O)[C@H](O)[C@H]3O)cc(O)c12 |  |  |  | 2.4 | 2.34
6 | C[C@@H]1O[C@@H](OC[C@H]2O[C@@H](Oc3c(-c4ccc(O)c(O)c4)oc4cc(O)cc(O)c4c3=O)[C@H](O)[C@@H](O)[C@@H]2O)[C@H](O)[C@H](O)[C@H]1O | 54.4 | 18 | Dose-dependent effect |  | 
7 | O=c1c(O)c(-c2ccc(O)c(O)c2)oc2cc(O)cc(O)c12 | 52.5 | 24 | Dose-dependent effect |  | 
8 | O=C(/C=C/c1ccc(O)c(O)c1)O[C@H](Cc1ccc(O)c(O)c1)C(=O)O | 93.3 | 67.8 | Dose-dependent effect |  | 
9 | COc1cc(O)c2c(=O)c(O)c(-c3ccc(OC)c(O)c3)oc2c1 | 24.3 |  |  | 13.7 | 
10 | COc1cc(-c2cc(=O)c3c(O)cc(O)cc3o2)ccc1O |  |  |  | 59 | 9
11 | COc1cc(-c2cc(=O)c3c(O)cc(O[C@@H]4O[C@H](CO)[C@@H](O)[C@H](O)[C@H]4O[C@@H]4O[C@@H](C)[C@H](O)[C@@H](O)[C@H]4O)cc3o2)ccc1O |  |  |  | 11.2 | 4.6
